Assay results taken from US20260294885A1, “TREATMENT OF INFLAMMATORY CONDITIONS COMPRISING IMU-856” (IMMUNIC AG, priority 2023, published 2026).
Entries after “also recorded” stand apart in the source; their conditions may differ.

Experiments:
[1] = system: other members of the human SIRT protein family; assay: Selectivity over other members of the SIRT family; type: biochemical
claudin (Cldn)-1 = assay: Tight junction protein claudin-1 in a TEER model; type: cell-based, human
Text: In one TEER model, tight junction (TJ)-related proteins were investigated, and a normalisation of TJ proteins (claudin (Cldn)-1 and claudin-2) was observed.

[2] = system: healthy subjects and patients with CelD; assay: Clinical safety, whole study; type: in vivo, human
Experimental: (§1) In Part A, healthy subjects were randomised to single ascending doses of IMU-856 (10 mg to 160 mg) or placebo. In Part B healthy subjects were randomised to multiple once-daily doses of IMU-856 (40, 80, and 160 mg) or placebo for 14 days. Part C randomised patients with celiac disease who were on a gluten-free diet to multiple once-daily doses of IMU-856 (80 mg and 160 mg) or placebo for 28 days; a once-daily gluten challenge (6 g) was introduced on Day 14 and ended on Day 28. 71 healthy subjects were enrolled in Part A and B (N=19 placebo and N=52 IMU-856) and 43 patients with CelD in Part C (N=14 placebo; N=14 for 80 mg, and N=15 for 160 mg). In Parts A and B, treatment-emergent adverse events (TEAEs) occurred in 24 (73%) and 15 (79%) of subjects receiving any dose of IMU-856 compared to 6 (50%) and 5 (71%) with placebo, respectively. […] In Part C, the most common adverse events with any dose of IMU-856 by preferred term were headache (13 [45%]), nausea (9 [31%]), diarrhoea (8 [28%]), and abdominal distension (7 [24%]). […] In Part C, the mean change in villous height from baseline to Day 29 with 80 mg and 160 mg was −20.9±34.8 μm, and −22.5±51.1 μm, respectively, and −60.3±52.2 μm with placebo. […] Mean change in plasma citrulline increased with 80 mg and 160 mg from baseline to Day 14 (2.4±6.2 and 6.1±5.9 μmol/L, respectively) and from baseline to Day 29 (2.8±7.6 and 2.2±5.3 μmol/L, respectively), but not with placebo (−2.7±5.6 and −4.0±6.5 μmol/L). […] Mean increase in zinc levels from baseline to Day 29 with 80 mg and 160 mg were 0.3±1.4 and 0.9±2.1 μmol/L compared to a mean decrease in placebo (−0.9±2.1 μmol/L). Gluten-induced symptoms were also attenuated by IMU-856.

[3] = system: patients with celiac disease; assay: Duodenal biopsy histology with gluten challenge (villous height, Vh:Cd, Q-MARSH), Part C; type: in vivo, human; details: for reduction in villous height: two weeks of 6 g/day gluten challenge; for mean change in villous height: baseline to Day 29, gluten challenge 6 g/day
Experimental: as §1
FIG. 1 illustrates the flow chart of part C in celiac disease (CelD) designed as proof-of-concept study with a gluten challenge trial. Part C was planned to include a well-controlled celiac disease patient population: The patients were 100% seronegative, indicating absence of ongoing substantial gluten exposure and was performed at sites in Australia and New Zealand. Part C was designed to assess safety, tolerability and pharmacokinetics of IMU-856 and measured also histologic changes, blood biomarkers, nutrient uptake and disease-related symptoms.

[4] = system: patients with celiac disease; assay: Patient-reported symptoms with gluten challenge (Celiac Disease Symptom Diary), Part C; type: in vivo, human; parameters: key to mean change in bloating / mean change in tiredness: change on 5-point severity scale (1=none to 5=very severe); details: for mean change in abdominal pain (SD) / mean change in diarrhea (SD) / mean change in nausea (SD): last day before to first day of gluten challenge, CDSD 5-point scale
Text: In an embodiment, the celiac disease patient is experiencing one or more symptoms as assessed by the CDSD Version 2.1® (ImmunogenX LLC) at the start of treatment with IMU-856 or a pharmaceutically acceptable salt or a solvate thereof. The CDSD questionnaire was developed to assess symptom severity in clinical trials in subjects with celiac disease. The CDSD includes five symptoms (diarrhea, abdominal pain, bloating, nausea, tiredness) asking participants about the severity of celiac disease symptoms they experience each day. Subjects rate their symptom severity on a 5-point scale (1=none, 2=mild, 3=moderate, 4=severe, 5=very severe). In various embodiments, the celiac disease patient is experiencing one or more significant or severe symptomatic days (based on CDSD) at the start of treatment with IMU-856 or a pharmaceutically acceptable salt or a solvate thereof.
Improvement in clinical symptoms of gluten exposure: On the first day of gluten challenge, the placebo group (N=12) experienced a marked average increase in symptoms, as assessed by the Celiac Disease Symptom Diary using a 5-point scale of 0.8 for nausea, 0.8 for abdominal pain, and 0.8 diarrhea. In contrast, among the pooled IMU-856 arms (N=26), these average increases were only 0.4 for nausea, 0.5 for abdominal pain and 0.6 for diarrhea.

IL-2 = assay: Serum IL-2 release on gluten challenge, Part C; type: in vivo, human; details: first day of gluten challenge (Day 14)
Experimental: Also, biomarker response upon treatment of CelD with IMU-856 was assessed. […] A wide inter-individual range of IL-2 response leads to large SD, especially in the placebo group. The inter-individual variance regarding IL-2 response decreases with increasing dose levels as illustrated in FIG. 8 (N=39/43 included in IL-2 analysis set. 3 patients not included in this analysis due to early termination and 1 incomplete IL-2 sampling due to site error. Methods used for IL-2 analysis: Milliplex® Human High Sensitivity T Cell Magnetic Bead Panel, 3 plex (Luminex®) and Simoa® CorPlex™ Human IL-2 Kit (Quanterix)).
FIG. 8 illustrates the mean absolute change and maximum change in serum IL-2 (in pg/mL) from pre-gluten to 4 hours post-gluten on first day of gluten challenge (IL: interleukin; SD: standard deviation).

[5] = 160 mg (N 11), Day 14 to Day 29
[6] = 160 mg (N 13), Day 13 to Day 14
[7] = All Active (N 20), Day 14 to Day 29
[8] = All Active (N 26), Day 13 to Day 14
[9] = continued treatment during gluten challenge

In the case of Cn1c(COc2cc(C(F)(F)F)ccn2)nnc1[C@H]1CC[C@H](c2cnn([C@H]3CC[C@H](N4CC5(CCO5)C4)CC3)c2)CC1 [IMU-856, 6-(trans-4-(4-(trans-4-(4-methyl-5-(((4-(trifluoromethyl)pyridin-2-yl)oxy)methyl)-4H-1,2,4-triazol-3-yl)cyclohexyl)-1H-pyrazol-1-yl)cyclohexyl)-1-oxa-6-azaspiro[3.3]heptane], the “selectivity for SIRT6 over other SIRT family members” value [1] is reported as “highly selective for SIRT6”, the claudin-1 (claudin (Cldn)-1) is reported as “normalisation” and the “IMP-related serious or treatment-emergent adverse events” value ([2]; human, in vivo) is reported as “no investigational medicinal product (IMP)-related serious or treatment-emergent adverse events”. The “dose-dependency in adverse events” value ([2]; human, in vivo) was “nor was there any dose-dependency in adverse events”, the “rates of TEAEs in non-disease related parameters versus placebo” value ([2]; human, in vivo) was “comparable between the active treatment groups and placebo” and the safety and tolerability ([2]; human, in vivo) was “safe and well-tolerated”. The “dose-limiting toxicities, systematic safety laboratory changes or deaths” value ([2]; whole study) was “No dose-limiting toxicities, systematic safety laboratory changes or deaths”, the “relation of serious adverse events to IMU-856” value ([2]; whole study) was “unrelated to IMU-856” and the serious adverse events ([2]; whole study) was “Two”. For the same compound, the “reduction in villous height” value ([3]; 80 mg (N=11)) was 20.9 μm, the “mean change in villous height” value ([3]; 80 mg once daily) was −20.9±34.8 μm and the “reduction in villous height” value ([3]; 160 mg (N=13)) was 22.5 μm. The “mean change in villous height” value ([3]; 160 mg once daily) was −22.5±51.1 μm, the “villous height protection versus placebo” value ([3]; Baseline to Day 29) was “protects villous height as compared to placebo, reaching statistical significance” and the “patients with improvement in one Q-MARSH category” value ([3]; Day 29, after gluten challenge) was “two and Two”. The Q-MARSH histological damage ([3]; change in Q-MARSH score between Baseline and Day 29) was “signals of preventing histological damage”, the “mean change in bloating” value ([4]; 80 mg (N 9), Day 14 to Day 29) was −0.4 and the “mean change in tiredness” value ([4]; 80 mg (N 9), Day 14 to Day 29) was −0.1. For the same compound, the “mean change in bloating” value ([4]; 80 mg (N 13), Day 13 to Day 14) was 0.3, the “mean change in tiredness” value ([4]; 80 mg (N 13), Day 13 to Day 14) was 0.2 and the “mean change in abdominal pain (SD)” value ([4]; 80 mg (N = 13)) was 0.5 (0.78). For the same compound, the “mean change in diarrhea (SD)” value ([4]; 80 mg (N = 13)) was 0.5 (0.97), the “mean change in nausea (SD)” value ([4]; 80 mg (N = 13)) was 0.2 (0.69) and the “mean change in bloating” value [4, 5] was −0.5. For the same compound, the “mean change in tiredness” value [4, 5] was −0.5, the “mean change in bloating” value [4, 6] was 0.5 and the “mean change in tiredness” value [4, 6] was 0.5. For the same compound, the “mean change in abdominal pain (SD)” value ([4]; 160 mg (N = 13)) was 0.4 (0.87), the “mean change in diarrhea (SD)” value ([4]; 160 mg (N = 13)) was 0.6 (1.12) and the “mean change in nausea (SD)” value ([4]; 160 mg (N = 13)) was 0.7 (1.03). For the same compound, the “mean change in bloating” value [4, 7] was −0.5, the “mean change in tiredness” value [4, 7] was −0.3 and the “mean change in bloating” value [4, 8] was 0.4. The “mean change in tiredness” value [4, 8] was 0.3, the gluten-induced symptoms ([4]; Part C) was “attenuated” and the “symptoms (nausea, abdominal pain or diarrhea)” value ([4]; after first day of gluten challenge (Day 14), versus placebo) was “fewer symptoms”. The “patient-reported ability to perform daily activities” value [4, 9] was “improvement”, the “recovery from bloating symptoms” value [4, 9] was “recover to a higher extent; also recorded: improvement” and the “recovery from tiredness symptoms” value [4, 9] was “recover to a higher extent; also recorded: improvement”. The “protection against acute gluten-induced symptoms” value ([4]; first day of gluten challenge) was “initial signal of protection against acute gluten-induced symptoms”, the “protection against chronic gluten-induced symptoms” value ([4]; human, in vivo) was “initial signal of protection against chronic gluten-induced symptoms” and the “gluten-induced acute immune response, IL-2 release” value (IL-2) was “dampens gluten-induced acute immune response, as measured by IL-2 release, in a dose-dependent fashion; also recorded: dose-dependent lessening of acute immune response”.
